Laboratory results taken from patent US12629363B2, “Prophylaxis and treatment of angioedema” (PHARVARIS GMBH, priority 2020, dated 2026).
≈ marks a conversion by molar mass, not a printed value.

Assays:
rat B2 receptor = target: T1, rat B2 receptor (Rattus norvegicus, UniProt P25023); test: Antagonist potency in cells expressing rat B2 receptor; assay type: cell-based; details: rat B2 receptor
T1 construct: expressed in transfected cells
T1 sequence (P25023 1-396): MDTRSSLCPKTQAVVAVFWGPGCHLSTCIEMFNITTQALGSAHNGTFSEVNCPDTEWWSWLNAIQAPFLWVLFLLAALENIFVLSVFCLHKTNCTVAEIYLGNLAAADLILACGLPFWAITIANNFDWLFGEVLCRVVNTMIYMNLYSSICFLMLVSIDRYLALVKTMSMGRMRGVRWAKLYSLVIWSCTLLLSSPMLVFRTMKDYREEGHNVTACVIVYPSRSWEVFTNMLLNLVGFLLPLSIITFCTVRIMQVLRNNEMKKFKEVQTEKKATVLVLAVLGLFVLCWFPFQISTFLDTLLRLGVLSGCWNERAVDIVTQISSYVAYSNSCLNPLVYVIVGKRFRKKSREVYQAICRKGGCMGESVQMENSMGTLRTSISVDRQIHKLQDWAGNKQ
Text: (§1) The bradykinin B2 receptor is well known for its species selective pharmacology (Paquet et al., Br. J. Pharmacol. (126), 1083-1090, 1999 (DOI: 10.1038/sj.bjp.0702403); Burgess et al., Br. J. Pharmacol. (129), 77-86, 2000 (DOI: 10.1038/sj.bjp.0703012)). […] Pharmacol. 11:916; DOI: 10.3389/fphar.2020.00916.

[1] = in vivo; cited from earlier work
acute HAE attacks = details: cited from earlier work
dog B2 receptor = target: T2, dog B2 receptor (Canis lupus familiaris, UniProt Q9BDQ4); test: Antagonist potency in cells expressing dog B2 receptor; assay type: cell-based; details: dog B2 receptor
T2 construct: expressed in transfected cells
T2 sequence (Q9BDQ4 1-392): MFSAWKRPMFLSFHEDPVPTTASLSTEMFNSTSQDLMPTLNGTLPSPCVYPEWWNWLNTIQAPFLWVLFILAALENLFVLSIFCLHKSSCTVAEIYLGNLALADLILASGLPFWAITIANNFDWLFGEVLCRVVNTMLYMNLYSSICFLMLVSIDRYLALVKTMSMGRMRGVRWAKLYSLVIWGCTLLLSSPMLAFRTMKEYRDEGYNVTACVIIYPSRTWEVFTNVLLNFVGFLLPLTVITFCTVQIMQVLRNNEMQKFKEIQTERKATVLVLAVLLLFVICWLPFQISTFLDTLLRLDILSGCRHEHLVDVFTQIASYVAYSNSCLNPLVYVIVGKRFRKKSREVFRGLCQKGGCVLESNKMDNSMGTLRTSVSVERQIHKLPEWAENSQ
Text: as §1

mouse B2 receptor = target: T3, mouse B2 receptor (Mus musculus, UniProt P32299); test: Antagonist potency in cells expressing mouse B2 receptor; assay type: cell-based; details: mouse B2 receptor
T3 construct: expressed in transfected cells
T3 sequence (P32299 1-392): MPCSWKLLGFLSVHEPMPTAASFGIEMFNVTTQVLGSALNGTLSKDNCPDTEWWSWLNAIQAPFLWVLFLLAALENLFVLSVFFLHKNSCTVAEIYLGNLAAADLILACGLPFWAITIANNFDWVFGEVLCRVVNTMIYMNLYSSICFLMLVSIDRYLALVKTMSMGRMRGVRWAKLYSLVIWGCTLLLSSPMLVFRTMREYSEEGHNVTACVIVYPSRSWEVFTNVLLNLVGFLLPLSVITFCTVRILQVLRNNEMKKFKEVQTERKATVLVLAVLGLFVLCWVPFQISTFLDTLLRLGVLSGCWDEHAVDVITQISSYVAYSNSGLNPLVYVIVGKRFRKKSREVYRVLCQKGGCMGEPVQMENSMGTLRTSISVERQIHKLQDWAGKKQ
Text: as §1

[2] = target: T4, cynomolgus monkey B2 receptor (Macaca fascicularis, UniProt A0A7N9CWN6); test: Antagonist potency in cells expressing cynomolgus monkey B2 receptor; assay type: cell-based; details: read-out: Kb value to antagonize BK activation
T4 sequence (A0A7N9CWN6 1-391): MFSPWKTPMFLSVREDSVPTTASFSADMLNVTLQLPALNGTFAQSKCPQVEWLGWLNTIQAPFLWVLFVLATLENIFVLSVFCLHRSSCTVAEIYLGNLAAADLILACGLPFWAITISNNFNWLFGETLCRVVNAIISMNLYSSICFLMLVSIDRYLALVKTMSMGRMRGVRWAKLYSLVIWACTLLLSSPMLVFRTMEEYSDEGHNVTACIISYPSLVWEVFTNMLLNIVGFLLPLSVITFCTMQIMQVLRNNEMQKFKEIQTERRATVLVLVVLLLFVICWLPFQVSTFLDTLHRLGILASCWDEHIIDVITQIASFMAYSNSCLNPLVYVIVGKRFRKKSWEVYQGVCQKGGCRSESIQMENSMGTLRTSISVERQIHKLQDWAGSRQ
Text: as §1

BK B2 receptor = target: T5, BK B2 receptor (Homo sapiens, UniProt P30411); details: cited from earlier work
T5 sequence (P30411 1-391): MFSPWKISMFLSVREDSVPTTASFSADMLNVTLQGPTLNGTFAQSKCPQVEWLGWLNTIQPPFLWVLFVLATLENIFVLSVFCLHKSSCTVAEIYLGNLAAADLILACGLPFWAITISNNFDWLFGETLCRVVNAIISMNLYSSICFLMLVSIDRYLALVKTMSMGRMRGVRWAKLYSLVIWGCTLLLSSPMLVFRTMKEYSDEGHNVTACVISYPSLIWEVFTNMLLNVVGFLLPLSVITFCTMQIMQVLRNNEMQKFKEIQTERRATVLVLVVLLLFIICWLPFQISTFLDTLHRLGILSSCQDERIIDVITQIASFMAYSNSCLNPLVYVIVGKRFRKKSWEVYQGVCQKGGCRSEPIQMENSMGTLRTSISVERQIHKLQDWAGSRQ

[3] = Drug-drug interaction trial with itraconazole, PK (Example 5)
Procedure: Thirteen healthy subjects were enrolled and completed the study.
On Days 4 to 8, subjects received once daily oral doses of 200 mg itraconazole one hour before start of a standard meal.
Trough plasma concentrations of itraconazole were determined by taking predose plasma samples on Days 4-7, to document exposure to itraconazole.

SMILES	Kb (rat B2 receptor) [nM]	half-life [1] [h]	time after which therapeutic response to an acute HAE attack wanes (acute HAE attacks; human, in vivo)	onset of relief in acute HAE attacks (acute HAE attacks; placebo 19.8 h, Lumry et al. 2011) [h]	Kb (dog B2 receptor) [nM]	Kb (mouse B2 receptor) [nM]	Kb [2] [nM]	Time plasma level above EC85 at a 75% confidence level (BK B2 receptor; in vivo, sc) [h]	Time plasma level above EC85 at a 75% confidence level, DBP (BK B2 receptor; in vivo, sc) [h]	Time plasma level above EC85 at a 75% confidence level, MAP (BK B2 receptor; in vivo, sc) [h]	intrinsic PD potency at the K B2 receptor (BK B2 receptor; in vivo) [nM]	time plasma concentration above EC85 (85% effective) at 50% probability (BK B2 receptor; in vivo) [h]	EC85 (published, BK challenge) (BK B2 receptor; plasma concentration, FDA Clinical Pharmacology Review Firazyr) [µg/mL]	mean predose plasma concentration (Ctrough) ([3]; Day 4, itraconazole 200 mg dosing) [ng/mL]	mean predose plasma concentration (Ctrough) ([3]; Day 7, itraconazole 200 mg dosing) [ng/mL]
NC(N)=NCCC[C@@H](N)C(=O)N[C@@H](CCCN=C(N)N)C(=O)N1CCC[C@H]1C(=O)N1C[C@H](O)C[C@H]1C(=O)NCC(=O)N[C@@H](Cc1cccs1)C(=O)N[C@@H](CO)C(=O)N1Cc2ccccc2C[C@@H]1C(=O)N1[C@H](C(=O)N[C@@H](CCCN=C(N)N)C(=O)O)C[C@@H]2CCCC[C@@H]21 [icatibant]	5.6	1.4	approximately 6 hours	2.0	30.7	4.4	4.06	5.5	5.5	5.5	8.9	5.5	0.0538 (≈ 0.0412 µM)		
CCC(C)n1ncn(-c2ccc(N3CCN(c4ccc(OCC5COC(Cn6cncn6)(c6ccc(Cl)cc6Cl)O5)cc4)CC3)cc2)c1=O (stereo not drawn) [itraconazole]														386 ± 82.2	597 ± 178
